Results taken from patent publication US7834194B2, “Cycloalkyl lactam derivatives as inhibitors of 11-beta-hydroxysteroid dehydrogenase 1” (Eli Lilly and Company, priority 2004, dated 2010).

Target: recombinant human 11β-HSD type 1 enzyme (Homo sapiens, UniProt P28845)
Test: 11β-HSD type 1 enzyme assay (NADPH production by fluorescence)
Format: biochemical
Conditions: three hour incubation at room temperature
Experimental: 11β-HSD Type 1 Enzyme Assay
Human 11β-HSD type 1 activity is measured by assaying NADPH production by fluorescence assay. Solid compounds are dissolved in DMSO to a concentration of 10 mM. Twenty microliters of each are then transferred to a column of a 96-well polypropylene Nunc plate where they are further diluted 50-fold followed by subsequent two-fold titration, ten times across the plate with additional DMSO using a Tecan Genesis 200 automated system. Plates are then transferred to a Tecan Freedom 200 system with an attached Tecan Temo 96-well head and an Ultra 384 plate reader. Reagents are supplied in 96-well polypropylene Nunc plates and are dispensed individually into black 96-well Molecular Devices High Efficiency assay plates (40 μL/well capacity) in the following fashion: 9 μL/well of substrate (2.22 mM NADP, 55.5 μM Cortisol, 10 mM Tris, 0.25% Prionex, 0.1% Triton X100), 3 μL/well of water to compound wells or 3 μL to control and standard wells, 6 μL/well recombinant human 11β-HSD type 1 enzyme, 2 μL/well of compound dilutions. For ultimate calculation of percent inhibition, a series of wells are added that represent assay minimum and maximum: one set containing substrate with 667 μM carbenoxolone (background), and another set containing substrate and enzyme without compound (maximum signal). Final DMSO concentration is 0.5% for all compounds, controls and standards. Plates are then placed on a shaker by the robotic arm of the Tecan for 15 seconds before being covered and stacked for a three hour incubation period at room temperature. Upon completion of this incubation, the Tecan robotic arm removes each plate individually from the stacker and places them in position for addition of 5 μL/well of a 250 μM carbenoxolone solution to stop the enzymatic reaction. Plates are then shaken once more for 15 seconds then placed into an Ultra 384 microplate reader (355EX/460EM) for detection of NADPH fluorescence.

recombinant human 11β-HSD type 1 enzyme, sequence (P28845 whole entry): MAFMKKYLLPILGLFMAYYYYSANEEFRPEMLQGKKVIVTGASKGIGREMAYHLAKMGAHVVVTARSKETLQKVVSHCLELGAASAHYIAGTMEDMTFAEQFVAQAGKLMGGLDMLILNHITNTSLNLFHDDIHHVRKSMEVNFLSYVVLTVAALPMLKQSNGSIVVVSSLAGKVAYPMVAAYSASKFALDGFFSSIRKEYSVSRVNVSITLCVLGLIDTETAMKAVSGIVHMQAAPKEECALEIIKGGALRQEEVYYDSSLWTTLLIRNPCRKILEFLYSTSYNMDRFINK

SMILES	IC50 [nM]
O=C1C(Cc2cc3ccccc3s2)CCN1C1CCCCC1 (stereo not shown)	190
O=C1C(Cc2cc3ccccc3o2)CCN1C1CCCCC1 (stereo not shown)	682
O=C1C(Cc2sc3cc4c(cc3c2Cl)OCO4)CCN1C1CCCCC1 (stereo not shown)	162
COc1ccc2c(Cl)c(CC3CCN(C4CCCCC4)C3=O)sc2c1 (stereo not shown)	508
O=C1C(Cc2cc3cc(-c4ccnc(F)c4)ccc3s2)CCN1C1CCCCC1 (stereo not shown)	257
O=C(O)c1ccc(-c2ccc3sc(CC4CCN(C5CCCCC5)C4=O)cc3c2)cc1 (stereo not shown)	427
O=C1C(Cc2sc3ccccc3c2Cl)CCCN1C1CCC(O)CC1 (stereo not shown)	276
